Laboratory results: US9499551B2, “Substituted pyrrolo[2,3-b]pyridines for treating cancer or inflammatory diseases” (Confluence Life Sciences, Inc., priority 2014, dated 2016)

Target: T1, TAK1-TAB1 (Homo sapiens, UniProt O43318)
T1 sequence (O43318 with tags, fused parts or gaps limits assumed): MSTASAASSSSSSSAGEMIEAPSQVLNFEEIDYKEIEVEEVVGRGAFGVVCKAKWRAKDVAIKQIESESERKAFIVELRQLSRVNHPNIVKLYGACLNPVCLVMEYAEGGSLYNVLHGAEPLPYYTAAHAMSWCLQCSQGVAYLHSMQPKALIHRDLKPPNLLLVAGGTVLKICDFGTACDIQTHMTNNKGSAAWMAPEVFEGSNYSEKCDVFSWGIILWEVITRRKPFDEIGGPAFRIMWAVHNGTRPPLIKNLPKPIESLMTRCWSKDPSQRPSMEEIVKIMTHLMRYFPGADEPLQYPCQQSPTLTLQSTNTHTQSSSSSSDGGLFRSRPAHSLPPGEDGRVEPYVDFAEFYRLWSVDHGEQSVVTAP
Assay: TAK1-TAB1 binding inhibitory potency (LanthaScreen competitive binding assay, kinase tracer-236)
Settings: 10 nM TAK1-TAB1, 100 nM kinase tracer-236; read-out: TAK1-Tab Inhibition IC50
From the text: TAK1-TAB1 Binding Inhibitory Potency:
The ability of candidate compounds to interact with TAK1-TAB1 is quantitated by a competitive binding assay using the LanthaScreen technology developed by Life Technologies. This assay is based on the binding of a proprietary, Alexa Fluor® 647-labeled, ATP-competitive kinase inhibitor (kinase tracer-236) to the TAK1-TAB1 construct in presence of a europium-conjugated antibody, resulting in a FRET (fluorescence resonance energy transfer) signal. Displacement of the kinase tracer by compound results in a lower emission ratio upon excitation of the europium chelate. Candidate compounds are designed as potential irreversible inhibitors of TAK1-TAB1, capable of ligating to an active site cysteine residue. The time dependent nature of irreversible inhibition is investigated by performing the binding assay with and without a pre-incubation of compound and TAK1-TAB1.
The inhibitory potency of candidate compounds is measured in 20 mM HEPES pH 7.5, 10 mM MgCl2, 0.01% BSA, 0.0005% Tween-20, and 2% DMSO in the presence of 10 nM TAK1-TAB1, 2 nM Eu-anti-his antibody, and 100 nM kinase tracer-236 using a 384-well plate format. Background signal is defined in the absence of TAK1-TAB1 and uninhibited signal is defined in the presence of vehicle (2% DMSO) alone. Compounds were evaluated in an 11 point dose-response ranging from 20 μM to 0.34 nM. The binding assays are performed under two conditions to evaluate time dependence of inhibition. For the pre-incubation assay, TAK1-TAB1 and Eu-anti-his antibody are preincubated with compound or vehicle for two hours prior to the addition of kinase tracer. The non-preincubated assay is run in which TAK1-TAB1 and Eu-anti-his antibody are added to a mixture of compound and kinase tracer. IC50 values of compounds are determined using a 4 parameter logistical fit of emission ratio as a function of the concentration of compound. […]

IC50, ≤ 1000 nM:
CC(C)Cn1cc(-c2cnc3[nH]cc(/C=C/C(N)=O)c3c2)ccc1=O [Example 326, (E)-3-(5-(1-isobutyl-6-oxo-1,6-dihydropyridin-3-yl)-1H-pyrrolo[2,3-b]pyridin-3-yl)acrylamide]
NC(=O)/C=C/c1c[nH]c2ncc(-c3ccc(OCC4CC4)nc3)cc12 [Example 327, (E)-3-(5-(6-(cyclopropyl-methoxy)pyridin-3-yl)-1H-pyrrolo[2,3-b]pyridin-3-yl)acrylamide]
NC(=O)/C=C/c1c[nH]c2ncc(-c3ccc(=O)n(CC4CC4)c3)cc12 [Example 328, (E)-3-(5-(1-(cyclopropyl-methyl)-6-oxo-1,6-dihydropyridin-3-yl)-1H-pyrrolo[2,3-b]pyridin-3-yl)acrylamide]
CON(C)C(=O)c1ccc(-c2cnc3[nH]cc(/C=C/C(N)=O)c3c2)cc1 [Example 329, (E)-4-(3-(3-amino-3-oxoprop-1-en-1-yl)-1H-pyrrolo[2,3-b]pyridin-5-yl)-N-methoxy-N-methyl-benzamide]
Cc1nc2[nH]cc(/C=C/C(N)=O)c2cc1-c1cccnc1 [Example 330, (E)-3-(6-methyl-5-(pyridin-3-yl)-1H-pyrrolo[2,3-b]pyridin-3-yl)acrylamide]
CC(=O)c1ccc(-c2cc3c(/C=C/C(N)=O)c[nH]c3nc2C)cc1 [Example 331, (E)-3-(5-(4-acetylphenyl)-6-methyl-1H-pyrrolo[2,3-b]pyridin-3-yl)acrylamide]
NC(=O)/C=C/c1c[nH]c2ncc(N3CCN(C(=O)c4ccc(F)cc4F)CC3)cc12 [Example 332, (E)-3-(5-(4-(2,4-difluorobenzoyl)piperazin-1-yl)-1H-pyrrolo[2,3-b]pyridin-3-yl)acrylamide]
CN1CCC(C(=O)c2ccc(-c3cnc4[nH]cc(/C=C/C(N)=O)c4n3)cc2)CC1 [Example 333, (E)-3-(2-(4-(1-methylpiperidine-4-carbonyl)phenyl)-5H-pyrrolo[2,3-b]pyrazin-7-yl)acrylamide]
CN1CCC(C(=O)c2ccc(-c3cnc4[nH]cc(/C=C/C(N)=O)c4c3)cc2)CC1 [Example 334, (E)-3-(5-(4-(1-methylpiperidine-4-carbonyl)phenyl)-1H-pyrrolo[2,3-b]pyridin-3-yl)acrylamide]
CC(C)c1ccc(C(=O)N2CCN(c3cnc4[nH]cc(/C=C/C(N)=O)c4c3)CC2)cc1 [Example 335, (E)-3-(5-(4-(4-isopropylbenzoyl)piperazin-1-yl)-1H-pyrrolo[2,3-b]pyridin-3-yl)acrylamide]
CCOCCOc1ccc(-c2cnc3[nH]cc(/C=C/C(N)=O)c3c2)cn1 [Example 336, (E)-3-(5-(6-(2-ethoxyethoxy)pyridin-3-yl)-1H-pyrrolo[2,3-b]pyridin-3-yl)acrylamide]
CCOCCn1cc(-c2cnc3[nH]cc(/C=C/C(N)=O)c3c2)ccc1=O [Example 337, (E)-3-(5-(1-(2-ethoxyethyl)-6-oxo-1,6-dihydropyridin-3-yl)-1H-pyrrolo[2,3-b]pyridin-3-yl)acrylamide]
NC(=O)/C=C/c1c[nH]c2ncc(C(=O)c3ccccc3)cc12 [Example 338, (E)-3-(5-benzoyl-1H-pyrrolo[2,3-b]pyridin-3-yl)acrylamide]
CC(=O)c1ccc(-c2cnc3[nH]cc(/C=C/C(N)=O)c3c2)cc1C [Example 339, (E)-3-(5-(4-acetyl-3-methylphenyl)-1H-pyrrolo[2,3-b]pyridin-3-yl)acrylamide]
CC(=O)c1ccc(-c2cnc3[nH]cc(/C=C/C(N)=O)c3n2)cc1C [Example 340, (E)-3-(2-(4-acetyl-3-methylphenyl)-5H-pyrrolo[2,3-b]pyrazin-7-yl)acrylamide]
NC(=O)/C=C/c1c[nH]c2ncc(-c3cccc(Oc4ccccc4)c3)cc12 [Example 341, (E)-3-(5-(3-phenoxyphenyl)-1H-pyrrolo[2,3-b]pyridin-3-yl)acrylamide]
NC(=O)/C=C/c1c[nH]c2ncc(-c3ccc(Oc4ccccc4)cc3)cc12 [Example 342, (E)-3-(5-(4-phenoxyphenyl)-1H-pyrrolo[2,3-b]pyridin-3-yl)acrylamide]
NC(=O)/C=C/c1c[nH]c2ncc(-c3ccc4c(c3)CCC4=O)nc12 [Example 343, (E)-3-(2-(1-oxo-2,3-dihydro-1H-inden-5-yl)-5H-pyrrolo[2,3-b]pyrazin-7-yl)acrylamide]
NC(=O)/C=C/c1c[nH]c2ncc(-c3ccc(Oc4ccc(F)cc4)cc3)cc12 [Example 344, (E)-3-(5-(4-(4-fluorophenoxy)phenyl)-1H-pyrrolo[2,3-b]pyridin-3-yl)acrylamide]
NC(=O)/C=C/c1c[nH]c2ncc(-c3ccc(Oc4ccccc4)nc3)cc12 [Example 345, (E)-3-(5-(6-phenoxypyridin-3-yl)-1H-pyrrolo[2,3-b]pyridin-3-yl)acrylamide]
CC(=O)c1cccc(N2CCN(c3cnc4[nH]cc(/C=C/C(N)=O)c4c3)CC2)c1 [Example 346, (E)-3-(5-(4-(3-acetylphenyl)piperazin-1-yl)-1H-pyrrolo[2,3-b]pyridin-3-yl)acrylamide]
NC(=O)/C=C/c1c[nH]c2ncc(-c3cc(Cl)cc(C(F)(F)F)c3)cc12 [Example 347, (E)-3-(5-(3-chloro-5-(trifluoromethyl)phenyl)-1H-pyrrolo[2,3-b]pyridin-3-yl)acrylamide]
Cc1cc(-c2cnc3[nH]cc(/C=C/C(N)=O)c3c2)cc(C(F)(F)F)c1 [Example 348, (E)-3-(5-(3-methyl-5-(trifluoromethyl)phenyl)-1H-pyrrolo[2,3-b]pyridin-3-yl)acrylamide]
COc1cc(-c2cnc3[nH]cc(/C=C/C(N)=O)c3c2)cc(C(F)(F)F)c1 [Example 349, (E)-3-(5-(3-methoxy-5-(trifluoromethyl)phenyl)-1H-pyrrolo[2,3-b]pyridin-3-yl)acrylamide]
NC(=O)/C=C/c1c[nH]c2ncc(-c3cc(Cl)nc(C(F)(F)F)c3)cc12 [Example 350, (E)-3-(5-(2-chloro-6-(trifluoromethyl)pyridin-4-yl)-1H-pyrrolo[2,3-b]pyridin-3-yl)acrylamide]
Cc1nc(C(=O)N(C)C)ccc1-c1cnc2[nH]cc(/C=C/C(N)=O)c2c1 [Example 351, (E)-5-(3-(3-amino-3-oxoprop-1-en-1-yl)-1H-pyrrolo[2,3-b]pyridin-5-yl)-N,N,6-trimethyl-picolinamide]
NC(=O)/C=C/c1c[nH]c2ncc(-c3ccc4c(c3)C(=O)CC4)cc12 [Example 352, (E)-3-(5-(3-oxo-2,3-dihydro-1H-inden-5-yl)-1H-pyrrolo[2,3-b]pyridin-3-yl)acrylamide]
NC(=O)/C=C/c1c[nH]c2ncc(C(=O)c3ccc(F)cc3)cc12 [Example 353, (E)-3-(5-(4-fluorobenzoyl)-1H-pyrrolo[2,3-b]pyridin-3-yl)acrylamide]
CN(C)C(=O)c1cnc2[nH]cc(/C=C/C(N)=O)c2c1 [Example 355, (E)-3-(3-amino-3-oxoprop-1-en-1-yl)-N,N-dimethyl-1H-pyrrolo[2,3-b]pyridine-5-carboxamide]
NC(=O)/C=C/c1c[nH]c2ncc(C=O)cc12 [Example 356, (E)-3-(5-formyl-1H-pyrrolo[2,3-b]pyridin-3-yl)acrylamide]
COCCN(C)C(=O)c1cnc2[nH]cc(/C=C/C(N)=O)c2c1 [Example 357, (E)-3-(3-amino-3-oxoprop-1-en-1-yl)-N-(2-methoxyethyl)-N-methyl-1H-pyrrolo[2,3-b]pyridine-5-carboxamide]
Cc1cc(C2CCC(c3cnc4[nH]cc(/C=C/C(N)=O)c4c3)CC2)cc(C(F)(F)F)c1 (stereo not shown) [Example 358, (E)-3-(5-(4-(3-methyl-5-(trifluoromethyl)phenyl)cyclohexyl)-1H-pyrrolo[2,3-b]pyridin-3-yl)acrylamide]
CC(C)c1ccccc1-c1cnc2[nH]cc(/C=C/C(N)=O)c2n1 [Example 359]
CC(C)(O)c1ccc(-c2cnc3[nH]cc(/C=C(\C#N)C(N)=O)c3c2)cc1 [Example 360, (E)-2-cyano-3-(5-(4-(2-hydroxypropan-2-yl)phenyl)-1H-pyrrolo[2,3-b]pyridin-3-yl)acrylamide]
